Publication PMC11350758, “Development of Xanthoangelol-Derived Compounds with Membrane-Disrupting Effects against Gram-Positive Bacteria” (Antibiotics, 2024)
Values after ≈ are worked out from the molar mass of the structure shown.

How the values were obtained:
[1] = test system: Staphylococcus aureus ATCC31007, penicillin-resistant strain; test: MIC, broth microdilution; format: cell-based; settings: Staphylococcus aureus ATCC31007; for MIC: read-out: MIC S. a. 31007
Experimental: (§1) All target derivatives were assessed for their in vitro antibacterial activities using a broth microdilution assay to test their minimum inhibitory concentrations (MICs) against six Gram-positive strains (S. aureus ATCC31007, S. aureus ATCC25923, S. aureus ATCC43300, E. faecalis ATCC29212, B. subtilis ATCC9372, and S. epidermidis ATCC12228) and four Gram-negative strains (A. baumannii ATCC19606, K. pneumonia ATCC10031, E. coli ATCC25922, and P. aeruginosa ATCC27853). These compounds were also evaluated for their hemolytic activities and membrane selectivity by determining their HC50 (the concentration required to lyse 50% of red blood cells) and SI (HC50/MICs) values, respectively, and vancomycin was used as the positive drug.
(§2) MICs of the derivatives were determined by the micro broth dilution method according to the American Clinical and Laboratory Standards Institute (CLSI) standards. Briefly, 2-fold serial dilutions of target compounds were prepared in 96-well plates containing TSB broth. An equal volume of bacterial suspension (10^6 CFU/mL) was then pipetted into each well, and the mixture was incubated at 37 °C for 24 h. […] All biological experiments were repeated three times.

[2] = test system: Staphylococcus epidermidis ATCC12228, erythromycin-susceptible strain; test: MIC, broth microdilution; format: cell-based; settings: Staphylococcus epidermidis ATCC12228; for MIC: read-out: MIC S. e. 12228
Experimental: as §1, §2

[3] = test system: Bacillus subtilis ATCC9372, penicillin-susceptible strain; test: MIC, broth microdilution; format: cell-based; settings: Bacillus subtilis ATCC9372; for MIC: read-out: MIC B. s. 9372
Experimental: as §1, §2

[4] = test system: Escherichia coli ATCC25922, penicillin-susceptible strain; test: MIC, broth microdilution; format: cell-based; settings: Escherichia coli ATCC25922; for MIC: read-out: MIC E. c. 25922
Experimental: as §1, §2

[5] = test system: Pseudomonas aeruginosa ATCC27853, penicillin-susceptible strain; test: MIC, broth microdilution; format: cell-based; settings: Pseudomonas aeruginosa ATCC27853; for MIC: read-out: MIC P. a. 27853
Experimental: as §1, §2

[6] = test system: Staphylococcus aureus ATCC25923, erythromycin-susceptible strain; test: MIC, broth microdilution; format: cell-based; settings: Staphylococcus aureus ATCC25923; for MIC: read-out: MIC S. a. 25923
Experimental: as §1, §2

[7] = test system: Enterococcus faecalis ATCC29212, vancomycin-susceptible strain; test: MIC, broth microdilution; format: cell-based; settings: Enterococcus faecalis ATCC29212; for MIC: read-out: MIC E. f. 29212
Experimental: as §1, §2

[8] = test system: Acinetobacter baumannii ATCC19606; test: MIC, broth microdilution; format: cell-based; settings: Acinetobacter baumannii ATCC19606; for MIC: read-out: MIC A. b. 19606
Experimental: as §1, §2

[9] = test system: Klebsiella pneumonia ATCC10031; test: MIC, broth microdilution; format: cell-based; settings: Klebsiella pneumonia ATCC10031; for MIC: Klebsiella pneumoniae, read-out: MIC K. p. 10031
Experimental: as §1, §2

[10] = test system: S. aureus; test: MIC, summary over the S. aureus strains tested; format: cell-based; settings: Staphylococcus aureus; over the three S. aureus strains tested; read-out: MICs against S. aureus
Experimental: as §1, §2

[11] = test system: Enterococcus faecium ATCC51559, vancomycin-resistant strain; test: MIC, broth microdilution; format: cell-based; settings: Enterococcus faecium ATCC51559, vancomycin-resistant; for MIC: read-out: MIC E. f. 51559
Experimental: as §2

[12] = test system: Enterococcus faecalis ATCC51299, vancomycin-resistant strain; test: MIC, broth microdilution; format: cell-based; settings: Enterococcus faecalis ATCC51299, vancomycin-resistant; for MIC: read-out: MIC E. f. 51299
Experimental: as §2

[13] = test system: red blood cells; test: Hemolysis assay; format: cell-based, Sheep; settings: concentration required to lyse 50% of red blood cells; 37 °C, 1 h
Experimental: as §1
To further detect the hemolytic toxicity and therapeutic potential of these derivatives, we proceeded to examine the hemolytic activities and membrane selectivity of these derivatives. The HC50 value was defined as the concentration needed for a compound to lyse 50% of red blood cells, and it is often used to evaluate the hemolytic toxicity to eukaryotic cells. […] The selectivity index (SI) was calculated by HC50/MICs of S. aureus ATCC43300 and was used to assess the potency and safety of the compounds. […] Thus, compound 9h was selected as a representative molecule for the in-depth in vitro and in vivo studies.
Sheep blood was used to isolate red blood cells (RBCs), which were then resuspended in 1× PBS (5%). The compounds were dissolved in PBS to give an initial concentration of 5.12 mg/mL, compound solution (100 μL) was added to the first well of a 96-well plate, two-fold serial dilutions of compounds were prepared in 96-well plates, and then 150 μL of 5% RBC suspension was added to each well. This was followed by incubation at 37 °C for 1 h. After incubation, the plate was centrifuged (3500 rpm, 5 min), and 100 μL of supernatant solution from each well was carefully pipetted into a new plate. The absorbance values were measured at 540 nm. Erythrocyte hemolysis rate = (Absorbancecompound – Absorbance negative control)/(Absorbance1% Triton X-100 − Absorbance negative control) × 100%. All biological experiments were repeated three times.

[14] = test system: Staphylococcus aureus ATCC43300, methicillin-resistant strain; test: microbe, parasite or virus in culture; format: cell-based; settings: Staphylococcus aureus ATCC43300 (MRSA); for MIC: ATCC 43300 / MRSA, read-out: MIC S. a 43300
Experimental: as §1, §2

Compound | MIC [1] | MIC [2] | MIC [3] | MIC [4] | MIC [5] | MIC [6] | MIC [7] | MIC [8] | MIC [9] | MIC [11] | MIC [12] | HC50 [13] | MIC [14] | also measured
CCN(CC)CCCOc1c(C(C)=O)ccc2c1C=CC(C)(CCC=C(C)C)O2 (centres unmarked) [Compound 5c, 1-(5-(3-(Diethylamino)propoxy)-2-methyl-2-(4-methylpent-3-en-1-yl)-2H-chromen-6-yl)ethan-1-one] | 32 µg/mL (≈ 80.1 µM) | 16 µg/mL (≈ 40 µM) | 16 µg/mL (≈ 40 µM) | 128 µg/mL (≈ 320 µM) | 32 µg/mL (≈ 80.1 µM) | 32 µg/mL (≈ 80.1 µM) | 32 µg/mL (≈ 80.1 µM) | 32 µg/mL (≈ 80.1 µM) | 16 µg/mL (≈ 40 µM) | 64 µg/mL (≈ 160 µM) | 128 µg/mL (≈ 320 µM) | 324.1 µg/mL | 32 µg/mL (≈ 80.1 µM) | MIC [10]: 8 to 128 µg/mL (≈ 20 to 320 µM)
CC(=O)c1ccc2c(c1OCCCN(C)CC(C)(C)CN(C)C)C=CC(C)(CCC=C(C)C)O2 (centres unmarked) [Compound 5g, 1-(5-(3-((3-(Dimethylamino)-2,2-dimethylpropyl)(methyl)amino)propoxy)-2-methyl-2-(4-methylpent-3-en-1-yl)-2H-chromen-6-yl)ethan-1-one] | 8 µg/mL (≈ 17 µM) | 4 µg/mL (≈ 8.5 µM) | 8 µg/mL (≈ 17 µM) | 16 µg/mL (≈ 34 µM) | 128 µg/mL (≈ 272 µM) | 8 µg/mL (≈ 17 µM) | 8 µg/mL (≈ 17 µM) | 8 µg/mL (≈ 17 µM) | 4 µg/mL (≈ 8.5 µM) | 16 µg/mL (≈ 34 µM) | 32 µg/mL (≈ 68 µM) | 183.1 µg/mL | 8 µg/mL (≈ 17 µM) | MIC [10]: 8 µg/mL (≈ 17 µM)
CC(=O)c1c(OCCC[n+]2ccccc2)c2c(c3c1OC(C)(CCC=C(C)C)C=C3)OC(C)(CCC=C(C)C)C=C2 (centres unmarked) [Compound 9b, 1-(3-((6-Acetyl-2,8-dimethyl-2,8-bis(4-methylpent-3-en-1-yl)-2H,8H-pyrano[2,3-f]chromen-5-yl)oxy)propyl)pyridin-1-ium] | 4 µg/mL | 32 µg/mL | 2 µg/mL | 128 µg/mL | > 128 µg/mL | 2 µg/mL | 2 µg/mL | 32 µg/mL | 32 µg/mL | 4 µg/mL | 4 µg/mL | 26.6 µg/mL | 1 µg/mL | 
CC(=O)c1ccc2c(c1OCCCN1CC(C)OC(C)C1)C=CC(C)(CCC=C(C)C)O2 (centres unmarked) [Compound 5d, 1-(5-(3-(2,6-Dimethylmorpholino)propoxy)-2-methyl-2-(4-methylpent-3-en-1-yl)-2H-chromen-6-yl)ethan-1-one] | > 128 µg/mL | > 128 µg/mL | > 128 µg/mL | > 128 µg/mL | > 128 µg/mL | > 128 µg/mL | > 128 µg/mL | 128 µg/mL (≈ 290 µM) | 128 µg/mL (≈ 290 µM) | > 128 µg/mL | > 128 µg/mL | 746.5 µg/mL | > 128 µg/mL | 
CC(=O)c1ccc2c(c1OCCCNCCN(C)C)C=CC(C)(CCC=C(C)C)O2 (centres unmarked) [Compound 5f, 1-(5-(3-((2-(Dimethylamino)ethyl)amino)propoxy)-2-methyl-2-(4-methylpent-3-en-1-yl)-2H-chromen-6-yl)ethan-1-one] | 16 µg/mL (≈ 38.6 µM) | 8 µg/mL (≈ 19.3 µM) | 8 µg/mL (≈ 19.3 µM) | 8 µg/mL (≈ 19.3 µM) | 32 µg/mL (≈ 77.2 µM) | 16 µg/mL (≈ 38.6 µM) | 8 µg/mL (≈ 19.3 µM) | 8 µg/mL (≈ 19.3 µM) | 8 µg/mL (≈ 19.3 µM) | 32 µg/mL (≈ 77.2 µM) | 32 µg/mL (≈ 77.2 µM) | 127.7 µg/mL | 8 µg/mL (≈ 19.3 µM) | 
CCNCCCOc1c(C(C)=O)ccc2c1C=CC(C)(CCC=C(C)C)O2 (centres unmarked) [Compound 5b, 1-(5-(3-(Ethylamino)propoxy)-2-methyl-2-(4-methylpent-3-en-1-yl)-2H-chromen-6-yl)ethan-1-one] | 16 µg/mL (≈ 43.1 µM) | 8 µg/mL (≈ 21.5 µM) | 8 µg/mL (≈ 21.5 µM) | 32 µg/mL (≈ 86.1 µM) | > 128 µg/mL | 16 µg/mL (≈ 43.1 µM) | 8 µg/mL (≈ 21.5 µM) | 16 µg/mL (≈ 43.1 µM) | 16 µg/mL (≈ 43.1 µM) | 32 µg/mL (≈ 86.1 µM) | 32 µg/mL (≈ 86.1 µM) | 118.4 µg/mL | 16 µg/mL (≈ 43.1 µM) | 
colistin [Cos, reference compound] |  |  |  |  |  |  |  |  |  |  |  |  |  | MIC S. a. 31007 [1]: 128 µg/mL; MIC S. e. 12228 [2]: 64 µg/mL; MIC B. s. 9372 [3]: 16 µg/mL; MIC E. c. 25922 [4]: 0.5 µg/mL; MIC P. a. 27853 [5]: 0.5 µg/mL; MIC S. a. 25923 [6]: 128 µg/mL; MIC E. f. 29212 [7]: 128 µg/mL; MIC A. b. 19606 [8]: 1 µg/mL; MIC K. p. 10031 [9]: 1 µg/mL; MIC E. f. 51559 [11]: >128 µg/mL; MIC E. f. 51299 [12]: >128 µg/mL; MIC S. a 43300 [14]: 128 µg/mL
CC(=O)c1ccc2c(c1OCCCN1CCN(C(C)=O)CC1)C=CC(C)(CCC=C(C)C)O2 (centres unmarked) [Compound 5e, 1-(4-(3-((6-Acetyl-2-methyl-2-(4-methylpent-3-en-1-yl)-2H-chromen-5-yl)oxy)propyl)piperazin-1-yl)ethan-1-one] | 128 µg/mL (≈ 282 µM) | 64 µg/mL (≈ 141 µM) | 64 µg/mL (≈ 141 µM) | > 128 µg/mL | > 128 µg/mL | 128 µg/mL (≈ 282 µM) | 32 µg/mL (≈ 70.4 µM) | 128 µg/mL (≈ 282 µM) | > 128 µg/mL | 128 µg/mL (≈ 282 µM) | 128 µg/mL (≈ 282 µM) | 62.3 µg/mL | 128 µg/mL (≈ 282 µM) | 
CNCCN(C)CCCOc1c2c(c3c(c1C(C)=O)OC(C)(CCC=C(C)C)C=C3)OC(C)(CCC=C(C)C)C=C2 (centres unmarked) [Compound 9f, 1-(2,8-Dimethyl-5-(3-(methyl(2-(methylamino)ethyl)amino)propoxy)-2,8-bis(4-methylpent-3-en-1-yl)-2H,8H-pyrano[2,3-f]chromen-6-yl)ethan-1-one] | 4 µg/mL (≈ 7.08 µM) | 8 µg/mL (≈ 14.2 µM) | 8 µg/mL (≈ 14.2 µM) | 128 µg/mL (≈ 227 µM) | > 128 µg/mL | 4 µg/mL (≈ 7.08 µM) | 8 µg/mL (≈ 14.2 µM) | 64 µg/mL (≈ 113 µM) | 16 µg/mL (≈ 28.3 µM) | 8 µg/mL (≈ 14.2 µM) | 4 µg/mL (≈ 7.08 µM) | 40.3 µg/mL | 4 µg/mL (≈ 7.08 µM) | 
CCN(CC)CCCNCCCOc1c2c(c3c(c1C(C)=O)OC(C)(CCC=C(C)C)C=C3)OC(C)(CCC=C(C)C)C=C2 (centres unmarked) [Compound 9g, 1-(5-(3-((3-(Diethylamino)propyl)amino)propoxy)-2,8-dimethyl-2,8-bis(4-methylpent-3-en-1-yl)-2H,8H-pyrano[2,3-f]chromen-6-yl)ethan-1-one] | 4 µg/mL (≈ 6.59 µM) | 1 µg/mL (≈ 1.65 µM) | 2 µg/mL (≈ 3.3 µM) | 4 µg/mL (≈ 6.59 µM) | 32 µg/mL (≈ 52.7 µM) | 2 µg/mL (≈ 3.3 µM) | 1 µg/mL (≈ 1.65 µM) | 4 µg/mL (≈ 6.59 µM) | 8 µg/mL (≈ 13.2 µM) | 32 µg/mL (≈ 52.7 µM) | 32 µg/mL (≈ 52.7 µM) | 34.9 µg/mL | 4 µg/mL (≈ 6.59 µM) | 
